The values that follow come from ChEMBL document CHEMBL1155491, “Acylurea connected straight chain hydroxamates as novel histone deacetylase inhibitors: Synthesis, SAR, and in vivo antitumor activity” (Bioorg Med Chem Lett, 2010).

One data set addresses T1, Histone deacetylase 8 (Homo sapiens, UniProt Q9BY41).
T1 sequence (Q9BY41 whole entry): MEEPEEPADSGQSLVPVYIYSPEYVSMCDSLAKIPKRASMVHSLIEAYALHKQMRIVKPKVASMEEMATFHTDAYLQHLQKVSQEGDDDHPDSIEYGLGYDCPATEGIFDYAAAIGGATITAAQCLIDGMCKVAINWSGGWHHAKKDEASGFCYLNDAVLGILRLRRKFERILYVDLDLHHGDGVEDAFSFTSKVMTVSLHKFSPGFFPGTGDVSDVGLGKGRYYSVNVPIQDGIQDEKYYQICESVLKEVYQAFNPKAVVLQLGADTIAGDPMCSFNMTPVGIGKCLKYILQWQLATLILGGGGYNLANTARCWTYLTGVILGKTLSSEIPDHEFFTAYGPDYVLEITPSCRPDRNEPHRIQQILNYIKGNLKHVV
Description: Inhibition of HDAC8.

For the next data set, the target named is Histone deacetylase 2 (Homo sapiens, UniProt Q92769).
A further data set concerns the target Histone deacetylase 3 (Homo sapiens, UniProt O15379). Description: Inhibition of HDAC3.
The target of the next data set is Histone deacetylase 4 (Homo sapiens, UniProt P56524). In words: Inhibition of HDAC4.
A further data set concerns the target Histone deacetylase 5 (Homo sapiens, UniProt Q9UQL6). Description: Inhibition of HDAC5.
Data set [1] addresses T2, Protein deacetylase HDAC6 (Homo sapiens, UniProt Q9UBN7).
T2 sequence (Q9UBN7 whole entry): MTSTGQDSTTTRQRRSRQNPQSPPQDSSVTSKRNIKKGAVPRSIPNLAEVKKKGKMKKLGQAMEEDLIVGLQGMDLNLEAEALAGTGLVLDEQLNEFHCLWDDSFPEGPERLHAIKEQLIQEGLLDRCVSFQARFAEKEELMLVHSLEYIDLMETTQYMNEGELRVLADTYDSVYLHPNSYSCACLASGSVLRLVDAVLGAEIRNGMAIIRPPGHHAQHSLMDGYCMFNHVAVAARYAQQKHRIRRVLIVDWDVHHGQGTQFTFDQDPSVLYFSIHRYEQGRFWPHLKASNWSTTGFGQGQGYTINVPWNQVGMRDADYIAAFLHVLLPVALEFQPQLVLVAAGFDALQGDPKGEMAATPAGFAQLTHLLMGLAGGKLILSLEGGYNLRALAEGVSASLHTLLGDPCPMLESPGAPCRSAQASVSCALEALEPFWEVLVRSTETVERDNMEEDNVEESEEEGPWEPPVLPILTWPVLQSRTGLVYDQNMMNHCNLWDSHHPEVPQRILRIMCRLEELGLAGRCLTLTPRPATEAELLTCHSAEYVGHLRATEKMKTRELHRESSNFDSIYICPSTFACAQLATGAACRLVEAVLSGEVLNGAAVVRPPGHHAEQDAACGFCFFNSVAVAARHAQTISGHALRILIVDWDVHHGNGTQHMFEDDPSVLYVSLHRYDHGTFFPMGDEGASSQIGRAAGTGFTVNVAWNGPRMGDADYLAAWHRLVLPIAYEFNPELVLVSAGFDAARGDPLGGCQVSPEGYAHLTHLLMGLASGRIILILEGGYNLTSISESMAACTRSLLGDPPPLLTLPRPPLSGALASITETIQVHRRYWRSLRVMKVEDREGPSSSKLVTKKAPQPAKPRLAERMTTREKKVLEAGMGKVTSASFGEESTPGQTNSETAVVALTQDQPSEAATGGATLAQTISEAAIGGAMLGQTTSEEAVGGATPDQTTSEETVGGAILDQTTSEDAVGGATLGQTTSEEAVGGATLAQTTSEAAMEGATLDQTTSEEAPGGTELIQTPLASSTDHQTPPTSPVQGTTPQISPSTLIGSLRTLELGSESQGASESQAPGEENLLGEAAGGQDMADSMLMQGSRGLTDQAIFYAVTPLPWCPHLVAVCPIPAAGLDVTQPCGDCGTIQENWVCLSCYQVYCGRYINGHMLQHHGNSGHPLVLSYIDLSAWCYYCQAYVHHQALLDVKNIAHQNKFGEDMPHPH
Description: Inhibition of HDAC6.

Another data set has as its target Histone deacetylase 7 (Homo sapiens, UniProt Q8WUI4). In words: Inhibition of HDAC7.
The target of a further data set is Histone deacetylase 9 (Homo sapiens, UniProt Q9UKV0). In words: Inhibition of HDAC9.
The target of data set [2] is T3, Polyamine deacetylase HDAC10 (Homo sapiens, UniProt Q969S8).
T3 sequence (Q969S8 whole entry): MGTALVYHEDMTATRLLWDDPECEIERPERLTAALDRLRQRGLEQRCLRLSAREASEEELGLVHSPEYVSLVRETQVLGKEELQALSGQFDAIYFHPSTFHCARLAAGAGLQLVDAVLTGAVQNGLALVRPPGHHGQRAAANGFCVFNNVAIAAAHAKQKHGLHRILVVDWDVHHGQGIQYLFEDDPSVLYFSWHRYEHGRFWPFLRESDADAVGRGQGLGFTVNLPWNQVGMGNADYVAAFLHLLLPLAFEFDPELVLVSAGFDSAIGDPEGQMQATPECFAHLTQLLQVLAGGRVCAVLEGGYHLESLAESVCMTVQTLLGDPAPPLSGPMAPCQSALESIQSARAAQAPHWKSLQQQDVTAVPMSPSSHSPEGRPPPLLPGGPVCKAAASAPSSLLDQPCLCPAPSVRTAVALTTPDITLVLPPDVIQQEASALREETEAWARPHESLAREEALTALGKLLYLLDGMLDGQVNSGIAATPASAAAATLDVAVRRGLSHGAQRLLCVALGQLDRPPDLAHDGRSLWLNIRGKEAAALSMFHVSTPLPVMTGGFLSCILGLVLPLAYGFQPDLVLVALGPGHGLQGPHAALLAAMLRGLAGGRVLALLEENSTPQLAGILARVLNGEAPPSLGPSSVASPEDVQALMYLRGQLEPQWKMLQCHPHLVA
In words: Inhibition of HDAC10.

The target in the next data set is T4, Histone deacetylase 11 (Homo sapiens, UniProt Q96DB2).
T4 sequence (Q96DB2 whole entry): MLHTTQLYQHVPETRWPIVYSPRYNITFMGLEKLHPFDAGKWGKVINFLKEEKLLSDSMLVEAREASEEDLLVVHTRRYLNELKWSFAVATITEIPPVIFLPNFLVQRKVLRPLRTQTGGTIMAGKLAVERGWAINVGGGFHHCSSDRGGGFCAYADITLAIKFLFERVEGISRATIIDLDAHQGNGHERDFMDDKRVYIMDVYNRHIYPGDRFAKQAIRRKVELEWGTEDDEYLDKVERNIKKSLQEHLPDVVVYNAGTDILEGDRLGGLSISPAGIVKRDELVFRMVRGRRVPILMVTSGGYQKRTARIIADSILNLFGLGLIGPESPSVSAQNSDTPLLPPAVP
Description: Inhibition of HDAC11.

The next data set has as its system HCT-116. In words: Antiproliferative activity against human HCT116 cells. It counts as functional, cell-based.
Another data set concerns A2780. In words: Antiproliferative activity against human A2780 cells. The data set is classed as functional, cell-based.
The subject of a further data set is PC-3. In words: Antiproliferative activity against human PC3 cells. It counts as functional, cell-based.
A short description of data set [3]: Solubility at pH 7. It counts as physicochemical. As to conditions: buffer.
The nature of data set [4]: Thermodynamic solubility at pH 7.4. The data set is classed as physicochemical. As to conditions: buffer, read-out: Therm_solubility.
The nature of data set [5]: Half life in human liver microsome. It counts as ADME. As to conditions: liver microsomes. On the technique in general: Microsomes from liver hold many membrane-bound enzymes, among them those of drug oxidation.
Data set [6] in a line: Half life in rat liver microsome. The data set is classed as ADME. As to conditions: liver microsomes.
Data set [7] in a line: Half life in mouse liver microsome. It counts as ADME. The following applies: liver microsomes.
Data set [8] can be described thus: Octanol-water distribution coefficient, log D of the compound. It counts as physicochemical.
Data set [9] deals with T5, Histone deacetylase 1 (Homo sapiens, UniProt Q13547). In words: Inhibition of HDAC1 in human COLO205 cells assessed as induction of histone H3 acetylation at 10 uM by Western-immuno blotting. It counts as cell-based. The following applies: COLO 205.
For data set [10], the target named is T5, Histone deacetylase 1.
Data set [11] addresses T5, Histone deacetylase 1. This is another data set of the same source.

Converted amounts (≈) assume the structure as drawn. The source made the active and inactive calls. The rule behind the calls is not given here.

T5 sequence (Q13547 whole entry): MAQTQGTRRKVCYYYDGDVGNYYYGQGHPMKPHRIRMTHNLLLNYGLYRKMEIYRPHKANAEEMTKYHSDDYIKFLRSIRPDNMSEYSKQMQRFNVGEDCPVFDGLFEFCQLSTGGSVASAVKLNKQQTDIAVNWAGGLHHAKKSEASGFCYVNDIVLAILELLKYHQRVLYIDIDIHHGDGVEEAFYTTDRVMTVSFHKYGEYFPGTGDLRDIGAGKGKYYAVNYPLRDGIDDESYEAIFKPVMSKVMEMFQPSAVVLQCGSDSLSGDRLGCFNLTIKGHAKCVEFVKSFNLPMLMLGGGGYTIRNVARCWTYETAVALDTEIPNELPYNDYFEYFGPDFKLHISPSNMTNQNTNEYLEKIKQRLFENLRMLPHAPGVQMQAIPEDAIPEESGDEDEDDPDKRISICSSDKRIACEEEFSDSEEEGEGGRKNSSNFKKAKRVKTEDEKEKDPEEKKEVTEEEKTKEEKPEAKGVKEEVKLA
Chain of Histone deacetylase 9 (Q9UKV0 whole entry): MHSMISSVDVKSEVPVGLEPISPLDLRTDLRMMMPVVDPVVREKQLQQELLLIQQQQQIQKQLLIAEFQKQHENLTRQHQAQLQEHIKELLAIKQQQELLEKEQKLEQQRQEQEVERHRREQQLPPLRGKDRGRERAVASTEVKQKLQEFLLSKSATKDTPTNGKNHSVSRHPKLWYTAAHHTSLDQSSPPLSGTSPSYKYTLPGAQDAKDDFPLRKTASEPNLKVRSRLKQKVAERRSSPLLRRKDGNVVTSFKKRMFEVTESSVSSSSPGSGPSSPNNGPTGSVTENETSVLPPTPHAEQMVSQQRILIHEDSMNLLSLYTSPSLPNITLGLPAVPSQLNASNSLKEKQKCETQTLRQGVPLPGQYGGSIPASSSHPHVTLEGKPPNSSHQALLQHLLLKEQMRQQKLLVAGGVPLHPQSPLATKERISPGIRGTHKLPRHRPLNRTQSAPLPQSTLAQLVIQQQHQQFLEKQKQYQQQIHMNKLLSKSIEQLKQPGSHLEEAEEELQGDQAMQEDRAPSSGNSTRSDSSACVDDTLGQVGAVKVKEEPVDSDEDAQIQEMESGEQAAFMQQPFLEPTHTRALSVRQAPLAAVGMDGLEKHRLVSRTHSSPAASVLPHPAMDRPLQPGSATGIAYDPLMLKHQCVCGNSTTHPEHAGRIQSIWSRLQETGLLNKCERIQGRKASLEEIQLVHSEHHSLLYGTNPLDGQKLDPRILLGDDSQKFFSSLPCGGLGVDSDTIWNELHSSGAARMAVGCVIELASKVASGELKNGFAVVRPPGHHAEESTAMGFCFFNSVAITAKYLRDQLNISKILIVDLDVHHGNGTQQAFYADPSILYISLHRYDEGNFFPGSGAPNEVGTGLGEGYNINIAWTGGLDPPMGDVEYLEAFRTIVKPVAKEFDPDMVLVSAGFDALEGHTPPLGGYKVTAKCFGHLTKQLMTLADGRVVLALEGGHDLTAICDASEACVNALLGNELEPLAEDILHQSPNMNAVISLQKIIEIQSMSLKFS
Chain of Histone deacetylase 2 (Q92769 whole entry): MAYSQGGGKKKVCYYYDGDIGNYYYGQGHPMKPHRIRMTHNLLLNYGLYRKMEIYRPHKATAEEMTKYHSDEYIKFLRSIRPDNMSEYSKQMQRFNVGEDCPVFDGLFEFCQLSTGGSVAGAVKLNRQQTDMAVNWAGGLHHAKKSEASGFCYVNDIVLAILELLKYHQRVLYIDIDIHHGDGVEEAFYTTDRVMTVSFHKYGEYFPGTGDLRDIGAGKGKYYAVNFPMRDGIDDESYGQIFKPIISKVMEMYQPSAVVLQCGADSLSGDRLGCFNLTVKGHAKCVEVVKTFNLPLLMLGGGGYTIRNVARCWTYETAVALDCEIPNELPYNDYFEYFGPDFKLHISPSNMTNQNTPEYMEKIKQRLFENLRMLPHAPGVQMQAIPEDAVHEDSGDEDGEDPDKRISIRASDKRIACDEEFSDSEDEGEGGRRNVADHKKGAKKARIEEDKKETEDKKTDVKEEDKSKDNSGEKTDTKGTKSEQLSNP
Chain of Histone deacetylase 7 (Q8WUI4 whole entry, looked up): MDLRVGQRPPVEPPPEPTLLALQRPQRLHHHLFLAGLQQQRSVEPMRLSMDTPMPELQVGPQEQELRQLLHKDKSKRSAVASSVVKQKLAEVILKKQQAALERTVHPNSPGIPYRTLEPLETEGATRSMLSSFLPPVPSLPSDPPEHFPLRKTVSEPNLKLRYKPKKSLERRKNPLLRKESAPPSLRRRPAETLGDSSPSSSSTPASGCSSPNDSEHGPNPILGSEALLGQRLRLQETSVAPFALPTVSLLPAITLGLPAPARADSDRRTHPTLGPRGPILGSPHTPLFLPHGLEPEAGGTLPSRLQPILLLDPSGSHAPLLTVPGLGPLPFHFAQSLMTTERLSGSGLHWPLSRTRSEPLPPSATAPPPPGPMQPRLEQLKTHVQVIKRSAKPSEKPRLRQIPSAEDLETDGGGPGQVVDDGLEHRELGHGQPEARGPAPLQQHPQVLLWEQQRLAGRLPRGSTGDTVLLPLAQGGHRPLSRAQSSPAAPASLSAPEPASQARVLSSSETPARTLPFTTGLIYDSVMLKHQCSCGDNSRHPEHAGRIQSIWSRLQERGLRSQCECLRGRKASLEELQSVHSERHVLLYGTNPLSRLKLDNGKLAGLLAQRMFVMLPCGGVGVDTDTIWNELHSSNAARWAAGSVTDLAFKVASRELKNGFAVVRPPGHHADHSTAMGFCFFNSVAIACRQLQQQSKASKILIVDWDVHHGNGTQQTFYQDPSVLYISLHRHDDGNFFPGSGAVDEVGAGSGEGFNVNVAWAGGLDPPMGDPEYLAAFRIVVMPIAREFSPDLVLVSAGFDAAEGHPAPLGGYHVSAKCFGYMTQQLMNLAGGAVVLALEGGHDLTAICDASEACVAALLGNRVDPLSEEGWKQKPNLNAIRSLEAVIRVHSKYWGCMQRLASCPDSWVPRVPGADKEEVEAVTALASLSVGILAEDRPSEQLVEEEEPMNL
Chain of Histone deacetylase 5 (Q9UQL6 whole entry): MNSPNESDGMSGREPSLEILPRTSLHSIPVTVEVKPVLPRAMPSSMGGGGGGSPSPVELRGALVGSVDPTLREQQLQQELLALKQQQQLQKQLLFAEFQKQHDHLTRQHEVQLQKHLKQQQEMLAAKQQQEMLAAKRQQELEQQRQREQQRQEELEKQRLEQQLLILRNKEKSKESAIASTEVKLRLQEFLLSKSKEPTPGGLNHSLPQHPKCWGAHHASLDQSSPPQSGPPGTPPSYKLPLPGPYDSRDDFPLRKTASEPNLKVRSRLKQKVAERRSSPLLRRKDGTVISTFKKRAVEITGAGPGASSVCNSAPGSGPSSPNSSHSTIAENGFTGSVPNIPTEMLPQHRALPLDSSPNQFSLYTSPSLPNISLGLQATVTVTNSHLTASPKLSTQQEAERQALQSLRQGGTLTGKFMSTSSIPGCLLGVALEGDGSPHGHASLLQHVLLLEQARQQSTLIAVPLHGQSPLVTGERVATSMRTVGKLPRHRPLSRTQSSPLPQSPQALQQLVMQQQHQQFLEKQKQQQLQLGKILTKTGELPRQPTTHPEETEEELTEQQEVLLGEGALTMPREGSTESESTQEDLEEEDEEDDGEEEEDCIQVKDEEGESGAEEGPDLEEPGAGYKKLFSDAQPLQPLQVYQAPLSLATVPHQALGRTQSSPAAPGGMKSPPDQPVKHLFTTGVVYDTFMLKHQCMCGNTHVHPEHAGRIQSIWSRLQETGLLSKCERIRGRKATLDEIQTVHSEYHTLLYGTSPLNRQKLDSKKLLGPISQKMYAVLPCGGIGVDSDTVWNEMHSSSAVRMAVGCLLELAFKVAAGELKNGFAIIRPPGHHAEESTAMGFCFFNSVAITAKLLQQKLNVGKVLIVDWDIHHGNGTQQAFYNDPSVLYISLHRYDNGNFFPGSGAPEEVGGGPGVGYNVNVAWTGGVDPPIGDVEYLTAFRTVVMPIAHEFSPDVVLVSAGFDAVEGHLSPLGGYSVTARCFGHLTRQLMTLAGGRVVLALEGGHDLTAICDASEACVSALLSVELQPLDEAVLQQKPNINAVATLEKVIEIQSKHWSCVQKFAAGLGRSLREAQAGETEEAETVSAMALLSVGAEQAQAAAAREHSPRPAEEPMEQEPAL
Chain of Histone deacetylase 3 (O15379 whole entry): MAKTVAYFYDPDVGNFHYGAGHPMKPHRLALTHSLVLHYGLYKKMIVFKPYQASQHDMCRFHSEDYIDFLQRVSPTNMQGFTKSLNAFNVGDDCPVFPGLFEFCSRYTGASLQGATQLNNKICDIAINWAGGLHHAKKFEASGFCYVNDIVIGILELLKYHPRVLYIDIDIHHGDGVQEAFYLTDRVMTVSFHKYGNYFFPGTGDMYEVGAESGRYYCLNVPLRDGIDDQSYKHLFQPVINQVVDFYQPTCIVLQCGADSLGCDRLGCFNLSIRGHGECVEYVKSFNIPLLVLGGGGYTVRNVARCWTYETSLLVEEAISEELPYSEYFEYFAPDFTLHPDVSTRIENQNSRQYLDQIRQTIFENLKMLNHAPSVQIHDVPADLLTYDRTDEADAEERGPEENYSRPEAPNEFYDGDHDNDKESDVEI

For orientation: Ki means the equilibrium dissociation constant of an inhibitor or competing ligand from its target. A low value points to higher affinity. By IC50 is commonly meant the midpoint of a concentration-inhibition curve. Read a high IC50 as weaker potency in that assay. A word on the solubility: it is the dissolved amount per volume that the medium holds. Low values mean a poorly soluble substance, high ones a readily soluble substance. The term half-life denotes the time in which the quantity being followed falls by half. In general, logD refers to lipophilicity at a set pH, counting ionised and neutral species. For the compound `O=C(CCCCCNC(=O)NC(=O)c1ccc(Br)cc1)NO`, the Ki is 315 nM on Histone deacetylase 8; 12 nM on Histone deacetylase 2; 8 nM on Histone deacetylase 3; 6 nM at Histone deacetylase 4; 13 nM on Histone deacetylase 5; 8 nM in [1]. Moreover, the Ki at Histone deacetylase 7 turned out to be 31 nM; on Histone deacetylase 9, 6 nM; in [2], 9 nM; at Histone deacetylase 11, 9 nM; at Histone deacetylase 1 [10] it was 8 nM. In addition, the IC50 in the data set with HCT-116 was 600 nM; in the data set with A2780, 450 nM; in the data set on PC-3 it was 660 nM; on Histone deacetylase 1 [10], 13 nM; at Histone deacetylase 1 [11] it was 870 nM. For the same compound, in data set [3], the solubility came out at 51 µM (≈ 19 µg/mL). The solubility thermodynamic in data set [4] came to 15 µg/mL (≈ 40.3 µM). Besides, the half-life in data set [5] was above 60 min; in data set [6], 53 min; in data set [7], 31 min. In data set [8], this compound registered a logD of 1.72. Moreover, the result on Histone deacetylase 1 [9] was Active.
